Structures are written as SMILES. “And” between values parts separate entries of the source, which are not always exact repeats. Equal values may be shown once. Inconclusive results are not listed.

The experiment concerns Lewis lung carcinoma i.m., BDF1 mice, T/C %. The experiment can be described thus: NCI In Vivo Anticancer Drug Screen. Data for tumor model Lewis Lung Carcinoma (intramuscular) in B6D2F1 (BDF1) mice. An outline of the steps: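 Value is the ratio of a treated-group measurement (T) to the matching vehicle-control measurement (C), using either survival or tumour size in mice bearing transplanted tumours.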

Setting [1] is: endpoint: median survival time, dose: 5.0 mg/kg/injection, schedule: Q01DX011 (ip), vehicle: saline with Tween-80, higher = longer survival.
[2] abbreviates: endpoint: median survival time, dose: 10.0 mg/kg/injection, schedule: Q01DX011 (ip), vehicle: saline with Tween-80, higher = longer survival.
[3] abbreviates: endpoint: median survival time, dose: 20.0 mg/kg/injection, schedule: Q01DX011 (ip), vehicle: saline with Tween-80, higher = longer survival.
Where [4] appears, read: endpoint: mean tumor weight, dose: 1.0 mg/kg/injection, schedule: Q01DX011 (ip), vehicle: saline, higher = larger tumour.
The mark [5] stands for this setting: endpoint: mean tumor weight, dose: 2.0 mg/kg/injection, schedule: Q01DX011 (ip), vehicle: saline, higher = larger tumour.
Setting [6] is: endpoint: median survival time, dose: 2.5 mg/kg/injection, schedule: Q01DX011 (ip), vehicle: saline with Tween-80, higher = longer survival.

Consider `O=Nc1c(N=O)c(N=O)c(N=O)c(N=O)c1N=O`, for which the T/C runs as follows: under setting [1], 110 % of control; under setting [2], 106 % of control; under setting [3], 115 % of control.
With `CCCCCCCCCCCCCCCCCC[N+](C)(C)C` (tested in a mixture with another compound), the T/C runs as follows: under setting [4], 59 % of control; under setting [5], 64 % of control; (endpoint: median survival time, dose: 2.0 mg/kg/injection, schedule: Q01DX011 (ip), vehicle: saline, higher = longer survival) 88 % of control.
As to `CC1=C2C(=C[C@@](C)(CO)[C@@H]2O)C(=O)[C@](C)(O)C12CC2`, the T/C reads like this: (endpoint: mean tumor weight, dose: 0.1 mg/kg/injection, schedule: Q01DX011 (ip), vehicle: other, higher = larger tumour) 89 % of control; (endpoint: mean tumor weight, dose: 0.2 mg/kg/injection, schedule: Q01DX011 (ip), vehicle: other, higher = larger tumour) 65 % of control; (endpoint: mean tumor weight, dose: 0.4 mg/kg/injection, schedule: Q01DX011 (ip), vehicle: other, higher = larger tumour) 58 % of control.
In the case of `FC(F)(F)c1nc2nc(Cl)c(Cl)nc2[nH]1`, the T/C by setting is: (endpoint: median survival time, dose: 8.0 mg/kg/injection, schedule: Q01DX011 (ip), vehicle: saline, higher = longer survival) 107 % of control; (endpoint: median survival time, dose: 16.0 mg/kg/injection, schedule: Q01DX011 (ip), vehicle: saline, higher = longer survival) 112 % of control; (endpoint: median survival time, dose: 32.0 mg/kg/injection, schedule: Q01DX011 (ip), vehicle: saline, higher = longer survival) 116 % of control.
For the molecule `CSc1ncnc2c1ncn2C1OC(CO)C(O)C1O` (stereo unspecified), the T/C is, setting by setting: (endpoint: mean tumor weight, dose: 3.75 mg/kg/injection, schedule: Q01DX011 (ip), vehicle: saline, higher = larger tumour) 86 % of control; (endpoint: mean tumor weight, dose: 7.5 mg/kg/injection, schedule: Q01DX011 (ip), vehicle: saline, higher = larger tumour) 63 % of control; (endpoint: median survival time, dose: 3.75 mg/kg/injection, schedule: Q01DX011 (ip), vehicle: saline, higher = longer survival) 100 % of control; (endpoint: median survival time, dose: 7.5 mg/kg/injection, schedule: Q01DX011 (ip), vehicle: saline, higher = longer survival) 90 % of control.
As to `CCN(CC)CCCC(C)Nc1c2ccccc2nc2c(Cl)cccc12` (stereo unspecified), the T/C is 81 % of control (endpoint: mean tumor weight (est.), dose: 7.5 mg/kg/injection, schedule: Q01DX011 (ip), vehicle: saline, higher = larger tumour); 96 % of control (endpoint: mean tumor weight (est.), dose: 15.0 mg/kg/injection, schedule: Q01DX011 (ip), vehicle: saline, higher = larger tumour); 95 % of control (endpoint: mean tumor weight (est.), dose: 30.0 mg/kg/injection, schedule: Q01DX011 (ip), vehicle: saline, higher = larger tumour).
`CC1([CH2][Hg][I])CS(=O)(=O)CC(C)([CH2][Hg][I])O1` (stereo unspecified): the T/C reads like this: (endpoint: mean tumor weight (est.), dose: 2.5 mg/kg/injection, schedule: Q01DX011 (ip), vehicle: saline with Tween-80, higher = larger tumour) 82 % of control; (endpoint: mean tumor weight (est.), dose: 5.0 mg/kg/injection, schedule: Q01DX011 (ip), vehicle: saline with Tween-80, higher = larger tumour) 89 % of control; (endpoint: mean tumor weight (est.), dose: 10.0 mg/kg/injection, schedule: Q01DX011 (ip), vehicle: saline with Tween-80, higher = larger tumour) 49 % of control; (endpoint: mean tumor weight (est.), dose: 20.0 mg/kg/injection, schedule: Q01DX011 (ip), vehicle: saline with Tween-80, higher = larger tumour) 47 % of control; under setting [6], 94 % of control; under setting [1], 98 % of control. Moreover, the T/C by setting is: under setting [2], 112 % of control; under setting [3], 100 % of control.
For the molecule `COc1ccc2c(Nc3ccc(NS(C)(=O)=O)cc3)c3ccccc3nc2c1`, the T/C runs as follows: (endpoint: mean tumor weight, dose: 12.5 mg/kg/injection, schedule: Q01DX011 (ip), vehicle: saline with Tween-80, higher = larger tumour) 52 % of control; (endpoint: median survival time, dose: 12.5 mg/kg/injection, schedule: Q01DX011 (ip), vehicle: saline with Tween-80, higher = longer survival) 107 % of control.
On to `CC(=O)Nc1cc(F)c([N+](=O)[O-])cc1[N+](=O)[O-]`, for which the T/C (endpoint: median survival time, dose: 1.25 mg/kg/injection, schedule: Q01DX011 (ip), vehicle: saline with Tween-80, higher = longer survival) was 108 % of control; the T/C under setting [6] is 104 % of control; the T/C under setting [1] is 95 % of control; the T/C under setting [2] was 113 % of control.
As to `O=P1(NCCCl)OCCCN1CCCl` (stereo unspecified), the T/C reads like this: (endpoint: mean tumor weight, dose: 23.0 mg/kg/injection, schedule: Q01DX011 (ip), vehicle: water, higher = larger tumour) 101 % of control; (endpoint: mean tumor weight, dose: 39.0 mg/kg/injection, schedule: Q01DX011 (ip), vehicle: water, higher = larger tumour) 66 % of control; (endpoint: mean tumor weight, dose: 108.0 mg/kg/injection, schedule: Q01DX001 (ip), vehicle: water, higher = larger tumour) 72 % of control; (endpoint: mean tumor weight, dose: 180.0 mg/kg/injection, schedule: Q01DX001 (ip), vehicle: water, higher = larger tumour) 14 % of control; (endpoint: median survival time, dose: 23.0 mg/kg/injection, schedule: Q01DX011 (ip), vehicle: water, higher = longer survival) 118 % of control and 122 % of control; (endpoint: median survival time, dose: 39.0 mg/kg/injection, schedule: Q01DX011 (ip), vehicle: water, higher = longer survival) 94 % of control and 124 % of control. Also, the T/C (endpoint: median survival time, dose: 65.0 mg/kg/injection, schedule: Q07DX Z (ip), vehicle: water, higher = longer survival) was 110 % of control; the T/C (endpoint: median survival time, dose: 108.0 mg/kg/injection, schedule: Q01DX001 (ip), vehicle: water, higher = longer survival) was 88 % of control and 98 % of control; the T/C (endpoint: median survival time, dose: 108.0 mg/kg/injection, schedule: Q01DX011 (ip), vehicle: water, higher = longer survival) is 104 % of control; the T/C (endpoint: median survival time, dose: 108.0 mg/kg/injection, schedule: Q04DX Z (ip), vehicle: water, higher = longer survival) was 98 % of control; the T/C (endpoint: median survival time, dose: 108.0 mg/kg/injection, schedule: Q07DX Z (ip), vehicle: water, higher = longer survival) was 112 % of control; the T/C (endpoint: median survival time, dose: 180.0 mg/kg/injection, schedule: Q01DX001 (ip), vehicle: water, higher = longer survival) is 114 % of control. For the same molecule, the T/C (endpoint: median survival time, dose: 180.0 mg/kg/injection, schedule: Q07DX Z (ip), vehicle: water, higher = longer survival) was 104 % of control; the T/C (endpoint: median survival time, dose: 300.0 mg/kg/injection, schedule: Q01DX001 (ip), vehicle: water, higher = longer survival) was 164 % of control and 178 % of control; the T/C (endpoint: median survival time, dose: 300.0 mg/kg/injection, schedule: Q04DX Z (ip), vehicle: water, higher = longer survival) is 120 % of control; the T/C (endpoint: median survival time, dose: 300.0 mg/kg/injection, schedule: Q07DX Z (ip), vehicle: water, higher = longer survival) was 158 % of control.
`O=C1N[C@@H]([C@H]2CC[C@H](Cl)CN2)C(=O)N[C@H]1[C@H]1CC[C@H](Cl)CN1`: the T/C is 67 % of control and 92 % of control (endpoint: mean tumor weight, dose: 0.5 mg/kg/injection, schedule: Q01DX011 (ip), vehicle: saline, higher = larger tumour); 65 % of control and 87 % of control under setting [4]; 42 % of control and 64 % of control under setting [5]; 105 % of control and 116 % of control (endpoint: median survival time, dose: 0.5 mg/kg/injection, schedule: Q01DX011 (ip), vehicle: saline, higher = longer survival); 95 % of control and 119 % of control (endpoint: median survival time, dose: 1.0 mg/kg/injection, schedule: Q01DX011 (ip), vehicle: saline, higher = longer survival).
On to `c1ccc2c(c1)ccc1c[n+]3ccccc3cc12`, for which the T/C was 53 % of control (endpoint: mean tumor weight (est.), dose: 0.25 mg/kg/injection, schedule: Q01DX011 (ip), vehicle: saline, higher = larger tumour) and 47 % of control (endpoint: mean tumor weight (est.), dose: 0.5 mg/kg/injection, schedule: Q01DX011 (ip), vehicle: saline, higher = larger tumour).
On to `COc1cc(C(=O)OC2CC34CCNC35CC(OC5(OC)C2O)c2cc3c(cc24)OCO3)ccc1O` (stereo unspecified), for which the T/C reads like this: (endpoint: mean tumor weight, dose: 1.0 mg/kg/injection, schedule: Q01DX011 (ip), vehicle: carboxymethylcellulose (CMC), higher = larger tumour) 81 % of control; (endpoint: mean tumor weight, dose: 2.0 mg/kg/injection, schedule: Q01DX011 (ip), vehicle: carboxymethylcellulose (CMC), higher = larger tumour) 70 % of control; (endpoint: mean tumor weight, dose: 4.0 mg/kg/injection, schedule: Q01DX011 (ip), vehicle: carboxymethylcellulose (CMC), higher = larger tumour) 49 % of control; (endpoint: median survival time, dose: 2.0 mg/kg/injection, schedule: Q01DX011 (ip), vehicle: carboxymethylcellulose (CMC), higher = longer survival) 91 % of control; (endpoint: median survival time, dose: 4.0 mg/kg/injection, schedule: Q01DX011 (ip), vehicle: carboxymethylcellulose (CMC), higher = longer survival) 86 % of control.
In the case of `C[C@@H]1O[C@@H](O[C@H]2CC[C@]3(C=O)[C@H]4CC[C@]5(C)[C@@H](c6ccc(=O)oc6)CC[C@]5(O)[C@@H]4CC[C@]3(O)C2)[C@H](O)[C@H](O)[C@H]1O[C@@H]1O[C@H](CO)[C@@H](O)[C@H](O)[C@H]1O`, the T/C reads like this: (endpoint: mean tumor weight (est.), dose: 0.63 mg/kg/injection, schedule: Q01DX011 (ip), vehicle: saline, higher = larger tumour) 80 % of control; (endpoint: mean tumor weight (est.), dose: 1.25 mg/kg/injection, schedule: Q01DX011 (ip), vehicle: saline, higher = larger tumour) 89 % of control; (endpoint: median survival time, dose: 0.63 mg/kg/injection, schedule: Q01DX011 (ip), vehicle: saline, higher = longer survival) 108 % of control; (endpoint: median survival time, dose: 1.25 mg/kg/injection, schedule: Q01DX011 (ip), vehicle: saline, higher = longer survival) 98 % of control.
With `CC(=O)O[C@H]1[C@H]2O[C@]23[C@@H]2CC[C@@H]4C[C@@H](O)CC[C@]4(C)[C@H]2CC[C@]3(C)[C@H]1c1ccc(=O)oc1`, the T/C is, setting by setting: (endpoint: mean tumor weight (est.), dose: 7.5 mg/kg/injection, schedule: Q01DX011 (ip), vehicle: other, higher = larger tumour) 94 % of control; (endpoint: median survival time, dose: 7.5 mg/kg/injection, schedule: Q01DX011 (ip), vehicle: other, higher = longer survival) 90 % of control.
Regarding `CCN(CCO)CCNc1ccc(C)c2sc3ccccc3c(=O)c12`, the T/C is 69 % of control (endpoint: mean tumor weight (est.), dose: 21.0 mg/kg/injection, schedule: Q01DX011 (ip), vehicle: saline, higher = larger tumour); 44 % of control (endpoint: mean tumor weight (est.), dose: 42.0 mg/kg/injection, schedule: Q01DX011 (ip), vehicle: saline, higher = larger tumour); 104 % of control (endpoint: median survival time, dose: 21.0 mg/kg/injection, schedule: Q01DX011 (ip), vehicle: saline, higher = longer survival); 110 % of control (endpoint: median survival time, dose: 42.0 mg/kg/injection, schedule: Q01DX011 (ip), vehicle: saline, higher = longer survival).

The values are drawn from PubChem BioAssay AID272 (DTP/NCI, 2004).
